This assay relates to NCI-H929 cells. As to the kind of experiment: Cytotoxicity experiment (WST-1). It is filed as cell-based. The following applies: Homo sapiens, 72 hours, WST-1, absorbance 450 nm. The procedure: In order to confirm the effect of the compound of the present disclosure on cancer cells and normal cells, the cytotoxicity experiment was conducted as follows.
After seeding NCI-H929 cells on a 96-well plate so as to be 10,000 cells per each well, each compound was treated in a predetermined concentration. In 72 hours, WST-1 reagent was added, and in 1 hour, the absorbance was measured at 450 nm using spectramax spectrophotometer to measure the degree of cell death.
A general note: Formazan colour is commonly taken as a measure of viable cells.

The term IC50 denotes the concentration that inhibits the measured activity by half. Higher therefore signals a need for much substance.

Where a name gives a salt, the structure may show the parent alone.

The compound `Nc1cccc2nnn(C3CCC(=O)NC3=O)c(=O)c12` (stereo not drawn) [Chemical formula 7, 3-(5-amino-4-oxobenzo[d][1,2,3]triazin-3(4H)-yl)piperidine-2,6-dione] showed an IC50 of less than 1 µM. In the case of `O=C1CCC(n2nnc3cccc(F)c3c2=O)C(=O)N1` (stereo not drawn) [Chemical formula 8, 3-(5-fluoro-4-oxobenzo[d][1,2,3]triazin-3(4H)-yl)piperidine-2,6-dione] it was 1 to 10 µM; in that of `O=C1CCC(n2nnc3cccc([N+](=O)[O-])c3c2=O)C(=O)N1` (stereo not drawn) [Chemical formula 9, 3-(5-nitro-4-oxobenzo[d][1,2,3]triazin-3(4H)-yl)piperidine-2,6-dione], 10 to 50 µM. `Cc1cccc2nnn(C3CCC(=O)NC3=O)c(=O)c12` (stereo not drawn) [Chemical formula 11, 3-(5-methyl-4-oxobenzo[d][1,2,3]triazin-3(4H)-yl)piperidine-2,6-dione]: the half-inhibitory concentration (IC50) lay in the range of 1 to 10 µM. For `O=C1CCC(n2nnc3ccc(Cl)cc3c2=O)C(=O)N1` (stereo not drawn) [Chemical formula 12, 3-(6-chloro-4-oxobenzo[d][1,2,3]triazin-3(4H)-yl)piperidine-2,6-dione] the value was 10 to 50 µM.

The compound `COc1ccc2nnn(C3CCC(=O)NC3=O)c(=O)c2c1` (stereo not drawn) [Chemical formula 19, 3-(6-methoxy-4-oxobenzo[d][1,2,3]triazin-3(4H)-yl)piperidine-2,6-dione] displayed an IC50 of 10 to 50 µM.

For the compound `CC(=O)Nc1cccc2nnn(C3CCC(=O)NC3=O)c(=O)c12` (stereo not drawn) [Chemical formula 20, N-(3-(2,6-dioxopiperidin-3-yl)-4-oxo-3,4-dihydrobenzo[d][1,2,3]triazin-5-yl)acetamide], the half-maximal inhibitory concentration (IC50) is 10 to 50 µM. For `O=C1CCC(n2nnc3c([N+](=O)[O-])cccc3c2=O)C(=O)N1` (stereo not drawn) [Chemical formula 21, 3-(8-nitro-4-oxobenzo[d][1,2,3]triazin-3(4H)-yl)piperidine-2,6-dione] the value was 10 to 50 µM. In the case of `CC(=O)Nc1ccc2nnn(C3CCC(=O)NC3=O)c(=O)c2c1` (stereo not drawn) [Chemical formula 23, N-(3-(2,6-dioxopiperidin-3-yl)-4-oxo-3,4-dihydrobenzo[d][1,2,3]triazin-6-yl)acetamide], the IC50 is 10 to 50 µM. In the case of `Nc1cccc2c(=O)n(C3CCC(=O)NC3=O)ccc12` (stereo not drawn) [Chemical formula 24, 3-(5-amino-1-oxoisoquinolin-2(1H)-yl)piperidine-2,6-dione] it was 10 to 50 µM; in that of `O=C1CCC(n2nnc3ccccc3c2=O)C(=O)N1` (stereo not drawn) [Chemical formula 25, 3-(4-oxobenzo[d][1,2,3]triazin-3(4H)-yl)piperidine-2,6-dione], 1 to 10 µM. For `O=C1CCC(n2nnc3cc([N+](=O)[O-])ccc3c2=O)C(=O)N1` (stereo not drawn) [Chemical formula 26, 3-(7-nitro-4-oxobenzo[d][1,2,3]triazin-3(4H)-yl)piperidine-2,6-dione] the value was 10 to 50 µM; for `O=C1CCC(n2nnc3ccc([N+](=O)[O-])cc3c2=O)C(=O)N1` (stereo not drawn) [Chemical formula 27, 3-(6-nitro-4-oxobenzo[d][1,2,3]triazin-3(4H)-yl)piperidine-2,6-dione], 10 to 50 µM. For `O=C1CCC(n2nnc3cccc(C(=O)O)c3c2=O)C(=O)N1` (stereo not drawn) [Chemical formula 29, 3-(2,6-dioxopiperidin-3-yl)-4-oxo-3,4-dihydrobenzo[d][1,2,3]triazin-5-carboxylic acid] the value was 10 to 50 µM; for `CC1(n2nnc3cccc(N)c3c2=O)CCC(=O)NC1=O` (stereo not drawn) [Chemical formula 30, 3-(5-amino-4-oxobenzo[d][1,2,3]triazin-3(4H)-yl)-3-methylpiperidine-2,6-dione], 10 to 50 µM. Compound `Nc1cccc2ccn(C3CCC(=O)NC3=O)c(=O)c12` (stereo not drawn) [Chemical formula 31, 3-(8-amino-1-oxoisoquinolin-2(1H)-yl)piperidine-2,6-dione] gave an IC50 of 10 to 50 µM. For `Cc1ccc(NC(=O)NCc2ccc3c(=O)n(C4CCC(=O)NC4=O)nnc3c2)cc1Cl` (stereo not drawn) [Chemical formula 37, 1-(3-chloro-4-methylphenyl)-3-((3-(2,6-dioxopiperidin-3-yl)-4-oxo-3,4-dihydrobenzo[d][1,2,3]triazin-7-yl)methyl)urea] the value was less than 1 µM; for `Cc1ccc(NC(=O)NCc2ccc3nnn(C4CCC(=O)NC4=O)c(=O)c3c2)cc1Cl` (stereo not drawn) [Chemical formula 38, 1-(3-chloro-4-methylphenyl)-3-((3-(2,6-dioxopiperidin-3-yl)-4-oxo-3,4-dihydrobenzo[d][1,2,3]triazin-6-yl)methyl)urea], less than 1 µM; for `O=C1CCC(n2nnc3cccc(NC(=O)c4ccccc4)c3c2=O)C(=O)N1` (stereo not drawn) [Chemical formula 56, N-(3-(2,6-dioxopiperidin-3-yl)-4-oxo-3,4-dihydrobenzo[d][1,2,3]triazin-5-yl)benzamide], 10 to 50 µM. The compound `O=C1CCC(n2nnc3cccc(O)c3c2=O)C(=O)N1` (stereo not drawn) [Chemical formula 57, 3-(5-hydroxy-4-oxobenzo[d][1,2,3]triazin-3(4H)-yl)piperidine-2,6-dione] yielded an IC50 of less than 1 µM. For `CC(C)(C)C(=O)OCN1C(=O)CCC(n2nnc3cccc(N)c3c2=O)C1=O` (stereo not drawn) [Chemical formula 58, (3-(5-amino-4-oxobenzo[d][1,2,3]triazin-3(4H)-yl)-2,6-dioxopiperidin-1-yl)methyl pivalate] the value was less than 1 µM; for `Nc1cccc2nnn(C3CCC(=O)N(COC(=O)c4ccccc4)C3=O)c(=O)c12` (stereo not drawn) [Chemical formula 59, (3-(5-amino-4-oxobenzo[d][1,2,3]triazin-3(4H)-yl)-2,6-dioxopiperidin-1-yl)methyl benzoate], less than 1 µM; for `Nc1cccc2nnn(C3CCC(=O)N(COC(=O)C4CCNCC4)C3=O)c(=O)c12` (stereo not drawn) [Chemical formula 60, (3-(5-amino-4-oxobenzo[d][1,2,3]triazin-3(4H)-yl)-2,6-dioxopiperidin-1-yl)methyl piperidine-4-carboxylate hydrochloride], less than 1 µM. For `Nc1cccc2nnn(C3CCC(=O)N(COC(=O)[C@H]4CCCN4)C3=O)c(=O)c12` (stereo partly drawn) [Chemical formula 61, (3-(5-amino-4-oxobenzo[d][1,2,3]triazin-3(4H)-yl)-2,6-dioxopiperidin-1-yl)methyl D-prolinate hydrochloride] the value was less than 1 µM. Consider `CC[C@H](C)[C@H](N)C(=O)OCN1C(=O)CCC(n2nnc3cccc(N)c3c2=O)C1=O` (stereo partly drawn) [Chemical formula 62, (3-(5-amino-4-oxobenzo[d][1,2,3]triazin-3(4H)-yl)-2,6-dioxopiperidin-1-yl)methyl L-isoleucinate hydrochloride], for which the IC50 was less than 1 µM. For `CCCC(=O)OCN1C(=O)CCC(n2nnc3cccc(N)c3c2=O)C1=O` (stereo not drawn) [Chemical formula 63, (3-(5-amino-4-oxobenzo[d][1,2,3]triazin-3(4H)-yl)-2,6-dioxopiperidin-1-yl)methyl butyrate] the value was less than 1 µM; for `Nc1ccc2nnn(C3CCC(=O)NC3=O)c(=O)c2c1` (stereo not drawn) [Chemical formula 65, 3-(6-amino-4-oxobenzo[d][1,2,3]triazin-3(4H)-yl)piperidine-2,6-dione], 10 to 50 µM.

For the origin of these results see patent publication US11192878B2, “Piperidine-2,6-dione derivative and use thereof” (KOREA RESEARCH INSTITUTE OF CHEMICAL TECHNOLOGY, priority 2017, dated 2021).
